Test results: PubChem BioAssay (NCI)
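Values below derive from 48-hour exposures of cells grown in 96-well plates, with endpoints linearly interpolated between the two concentrations bracketing the appropriate inhibition level. Abbreviation: GI50, concentration required for 50% inhibition of growth. TGI is the concentration that stops growth completely.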

What was measured:
Test in all cases: NCI-60 cell line screen, 48 h
UO-31 renal = test system: UO-31 renal
OVCAR-4 ovarian = test system: OVCAR-4 ovarian
CAKI-1 renal = test system: CAKI-1 renal
IGROV1 ovarian = test system: IGROV1 ovarian
SF-295 CNS = test system: SF-295 CNS
SNB-19 CNS = test system: SNB-19 CNS
OVCAR-3 ovarian = test system: OVCAR-3 ovarian
CCRF-CEM leukemia = test system: CCRF-CEM leukemia
SF-539 CNS = test system: SF-539 CNS

Structure (SMILES) | TGI (UO-31 renal) | TGI (OVCAR-4 ovarian) | TGI (CAKI-1 renal) | TGI (IGROV1 ovarian) | TGI (SF-295 CNS) [µM] | TGI (SNB-19 CNS) | TGI (OVCAR-3 ovarian) [µM] | TGI (CCRF-CEM leukemia) | TGI (SF-539 CNS) | GI50 (UO-31 renal) | GI50 (OVCAR-4 ovarian) | GI50 (CAKI-1 renal) [µg/mL] | GI50 (IGROV1 ovarian) | GI50 (SNB-19 CNS) [µg/mL] | GI50 (CCRF-CEM leukemia) | GI50 (SF-539 CNS) [µg/mL] | GI50 (SF-295 CNS) [µM] | GI50 (OVCAR-3 ovarian) [µM]
CCOc1ccc2nc(NC(=O)C(=O)C(c3cnc4ccccc4n3)[N+](=O)[O-])sc2c1 (centres undefined) | > 100 µM | > 100 µM | > 100 µM | > 100 µM | > 100 | > 100 µM | > 100 | > 100 µM | > 100 µM |  |  |  |  |  |  |  |  | 
COc1ccccc1NC(=O)CC(=O)N/N=C/c1ccc(N(CCC#N)S(=O)(=O)c2ccccc2)cc1 | > 100 µM | > 100 µM | > 100 µM | > 100 µM | > 100 | > 100 µM | > 100 | > 100 µM |  |  |  |  |  |  |  |  |  | 
O=C(NC12CC3CC(CC(C3)C1)C2)C(=O)c1c[nH]c2ccccc12 | 36.6 µM | 31.4 µM |  | 29.3 µM | 22.4 | 32.3 µM | 31 | 73.6 µM | 26.7 µM |  |  |  |  |  |  |  |  | 
COc1cccc(NC(=O)/C(Cc2nc3ccccc3nc2C)=N/NC(=O)C[n+]2ccccc2)c1 | > 100 µM | > 100 µM | > 100 µM | > 100 µM | > 100 | > 100 µM | > 100 | > 100 µM | > 100 µM |  |  |  |  |  |  |  |  | 
COc1ccc(OCC(=O)O)c(C(=O)CCC(=O)O)c1 | > 100 µM | > 100 µM |  | > 100 µM | > 100 | > 100 µM | > 10 | > 100 µM | > 100 µM |  |  |  |  |  |  |  |  | 
COC(C)(C)C/C=C/C(C)=C/C=C/C(C)=C\C=C\C(C)=C\C=C\C=C(C)\C=C\C=C(C)\C=C\C=C(C)\C=C\CC(C)(C)OC | > 150 µg/mL | > 150 µg/mL | > 150 µg/mL | > 150 µg/mL |  | > 150 µg/mL |  | > 150 µg/mL | > 150 µg/mL | > 150 µg/mL | > 150 µg/mL | > 150 | > 150 µg/mL | > 150 | > 150 µg/mL | > 150 |  | 
O=c1c2cc(Cl)ccc2sc2cccc(Cl)c12 | > 100 µM | > 100 µM | > 100 µM | > 100 µM | > 100 | > 100 µM | > 100 | > 100 µM | > 100 µM |  |  |  |  |  |  |  |  | 
CCN(CC)c1ccc(N=Nc2ccc(-c3nc4ccc[n+](C)c4o3)cc2)cc1 | 25.4 µM | 25.2 µM | 26.3 µM | 30.8 µM | 27.9 | 26.1 µM | 21.8 | 19.8 µM | 20.3 µM |  |  |  |  |  |  |  |  | 
N#CC1CCCCCCCCCCC(=O)N(CCCl)C1=O (centres undefined) | > 100 µM | > 100 µM | > 100 µM | > 100 µM | > 100 | > 100 µM | > 100 | > 100 µM | > 100 µM |  |  |  |  |  |  |  |  | 
COC(=O)CC[C@H](Cc1ccccc1)NC(=O)c1csc([C@@H](C[C@H](C(C)C)N(C)C(=O)[C@@H](NC(=O)[C@H]2CCCCN2C)C(C)C)OC(C)=O)n1 | > 25 µM | > 25 µM |  | > 25 µM | > 25 |  | > 25 | > 25 µM |  | 0.0165 µM | 0.023 µM |  | 0.00331 µM |  | 0.00289 µM |  | < 0.0025 | < 0.0025
Cc1cc(C)cc(NC(N)=S)c1 | > 100 µM | > 100 µM | > 100 µM | > 100 µM | > 100 | > 100 µM | > 100 | 48 µM | > 100 µM |  |  |  |  |  |  |  |  | 
CC(=O)C1=C(O)CC2CC3c4[nH]c5ccccc5c4CCN3CC2C1 (centres undefined) | > 100 µM | > 100 µM |  | > 100 µM | > 100 | > 100 µM | > 100 | 87.7 µM | > 100 µM |  |  |  |  |  |  |  |  | 
COC(=O)Nc1nc2ccc(Br)cc2[nH]1 | > 100 µM | > 100 µM |  | > 100 µM | > 100 |  | 82.5 | > 100 µM | 57.3 µM |  |  |  |  |  |  |  |  | 
CN(C)CC/[N+]([O-])=C(/c1ccccc1)C12CC3CC(CC(C3)C1)C2 | 24.6 µM |  | 31.5 µM | 33.9 µM | 27.5 | 37.5 µM | 27.8 | 34.3 µM | 30.8 µM |  |  |  |  |  |  |  |  | 
O=C(c1ccccc1)c1cn(/N=C\c2ccccc2)c(=O)nc1-c1ccccc1 | > 100 µM | > 100 µM |  |  | > 100 | > 100 µM | > 100 | > 100 µM | > 100 µM |  |  |  |  |  |  |  |  | 
Cc1cc2c(C)nn(Cc3ccc(Cl)cc3)c2c(C#N)c1C | > 100 µM |  |  | > 100 µM | > 100 | > 100 µM | > 100 | > 100 µM | > 100 µM |  |  |  |  |  |  |  |  | 
Clc1ccc(C(n2cc(Br)cn2)n2cc(Br)cn2)cc1 | 20 µM | 26.4 µM | 23.4 µM | 41.3 µM | 29.8 |  | 28 | 60.9 µM |  |  |  |  |  |  |  |  |  | 
CN(C)c1ccc(/C=c2\sc3nc4ccccc4n3c2=O)cc1 | > 100 µM | > 100 µM | > 100 µM | > 100 µM | > 100 | > 100 µM | > 100 |  | > 100 µM |  |  |  |  |  |  |  |  | 
CC(=O)OCC1OC(n2c(-c3ccc(C)cc3)cc(-c3ccccc3)c(C#N)c2=O)C(OC(C)=O)C(OC(C)=O)C1OC(C)=O (centres undefined) | > 100 µM | > 100 µM | > 100 µM | > 100 µM |  | > 100 µM | > 100 | > 100 µM | > 100 µM |  |  |  |  |  |  |  |  | 
